# Where “and” joins values, the source holds several entries; their conditions need not be identical. Equal entries are not always repeated.
# Columns and labels:
# HSA = HSA (Homo sapiens, UniProt P02768); experiment: Equilibrium dialysis; format: binding
# AAG = conditions: cited from earlier work
# NOTCH1 = experiment: In vitro Notch cellular assay; format: cell-based, human
# in vitro = conditions: human, human plasma, pH 7.2
# [1] = target: human α1-acid glycoprotein (AAG) (Homo sapiens, UniProt P02763); experiment: Equilibrium dialysis, binding in isolated AAG solution; conditions: for mean Fu: total drug 500 ng/mL (1,065 nmol/L); for RO4929097 fraction unbound estimated from Equation (A): nK 1.0 × 10^6 L/mol; for maximum binding concentration (nP) of AAG: estimate ± SE
# plasma proteins [2] = tested on: plasma proteins
# [3] = Clinical plasma pharmacokinetics in patients with advanced breast cancer; format: in vivo, human; conditions: for Tmax: po, 20 mg
# plasma proteins [4] = tested on: plasma proteins; remark: listed apart in the source
# [5] = daily oral 150 mg/d in patients with cancer; cited from earlier work
# [6] = Homo sapiens, U2OS, 24 h, read-out: inhibition of cellular Notch activity
# [7] = given alone, 20 mg orally, median (interquartile range), n = 8
# [8] = single oral dose of 20 mg in 8 patients
# human α1-acid glycoprotein (AAG), sequence (P02763 19-201): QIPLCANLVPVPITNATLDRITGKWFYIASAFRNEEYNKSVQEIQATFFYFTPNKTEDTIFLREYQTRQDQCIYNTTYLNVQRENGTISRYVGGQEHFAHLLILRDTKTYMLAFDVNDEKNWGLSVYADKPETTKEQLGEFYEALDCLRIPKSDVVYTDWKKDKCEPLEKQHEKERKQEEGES
# HSA, sequence (P02768 25-609): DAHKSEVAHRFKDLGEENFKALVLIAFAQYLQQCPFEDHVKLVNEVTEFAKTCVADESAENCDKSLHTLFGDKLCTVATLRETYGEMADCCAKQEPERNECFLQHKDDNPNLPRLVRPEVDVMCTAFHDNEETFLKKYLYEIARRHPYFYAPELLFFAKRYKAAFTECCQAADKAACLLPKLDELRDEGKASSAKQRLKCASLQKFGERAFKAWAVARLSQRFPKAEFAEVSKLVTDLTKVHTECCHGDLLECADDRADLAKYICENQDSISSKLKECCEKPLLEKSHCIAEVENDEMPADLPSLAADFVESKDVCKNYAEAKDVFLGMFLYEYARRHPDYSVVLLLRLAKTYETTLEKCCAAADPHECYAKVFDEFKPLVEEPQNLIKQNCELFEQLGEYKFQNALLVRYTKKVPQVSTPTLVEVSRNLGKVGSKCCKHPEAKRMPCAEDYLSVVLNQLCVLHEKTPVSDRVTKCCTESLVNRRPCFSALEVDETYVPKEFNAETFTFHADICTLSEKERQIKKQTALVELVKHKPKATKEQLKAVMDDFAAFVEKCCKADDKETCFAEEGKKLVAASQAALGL
compound,measurement,setting,value
"CC(C)(C(=O)NCC(F)(F)C(F)(F)F)C(=O)N[C@@H]1C(=O)Nc2ccccc2-c2ccccc21 [RO4929097, RO4929097 (γ-secretase inhibitor)]",Kd,HSA,90900 nM
Cc1ccc(NC(=O)c2ccc(CN3CCN(C)CC3)cc2)cc1Nc1nccc(-c2cccnc2)n1 [imatinib],binding affinity for AAG (Ka),AAG,1.7e+06 L/mol
CC(C)(C(=O)NCC(F)(F)C(F)(F)F)C(=O)N[C@@H]1C(=O)Nc2ccccc2-c2ccccc21 [RO4929097],RO4929097 Notch-inhibitory activity in presence of AAG,"NOTCH1; AAG 0.5, 1.4, […], total RO4929097 500 and 5,000 nmol/L",significantly reduced
same,inhibition at 0.05 µM,NOTCH1; [6],2.1%
same,inhibition at 0.5 µM,NOTCH1; [6],62%
same,inhibition at 5 µM,NOTCH1; [6],73%
same,IC50,"NOTCH1; Homo sapiens, U2OS, read-out: unbound RO4929097 concentration for 50% inhibition of the maximum Notch activity (IC50)",109 nM
same,fraction unbound at 24 h,in vitro,0.047
same,mean Fu,[1]; AAG 0.2 mg/mL,19.0%
same,RO4929097 fraction unbound estimated from Equation (A),[1]; AAG 0.5 mg/mL,8%
same,maximum binding concentration (nP) of AAG,"[1]; AAG 1.4 mg/mL, Equation (C), GDC-0449 0 μmol/L",23.1 µmol/L and 23.1 ± 0.9 µmol/L
same,maximum binding concentration (nP) of AAG,"[1]; AAG 1.4 mg/mL, GDC-0449 5 μmol/L",25.3 ± 1.1 µmol/L
same,maximum binding concentration (nP) of AAG,"[1]; AAG 1.4 mg/mL, GDC-0449 25 μmol/L",34.9 ± 2.0 µmol/L
same,RO4929097 fraction unbound estimated from Equation (A),[1]; AAG 1.4 mg/mL,3%
same,mean Fu,[1]; AAG […],1.1%
same,total binding constant (nK) for AAG,"[1]; Equation (A), Fu versus protein concentration, nonlinear regression",1e+06 L/mol and 1.1e+06 L/mol
same,intraindividual variability in RO4929097 fraction unbound,plasma proteins [2]; during the treatment in individual patient,up to 5 fold
same,interindividual variability in RO4929097 fraction unbound,"plasma proteins [2]; patients, alone or in combination with GDC-0449",up to 10 fold
same,Decrease in average systemic exposure to total RO4929097,[3]; co-administered with GDC-0449,8.3 fold
same,Decrease in average unbound RO4929097 exposure,[3]; co-administered with GDC-0449,1.7 fold
same,Unbound RO4929097 AUC0–24h,[3]; [7],52.8 (33.2–64.9) nmol/L h
same,Unbound RO4929097 Cmax,[3]; [7],4.3 (2.7–5.6) nmol/L
same,AUC(0-t),"[3]; human, plasma, oral, Total RO4929097 AUC0–24h, in combination with GDC-0449 150 mg orally, median (interquartile range), n = 8",0.723 µM·h
same,Tmax,"[3]; human, plasma, Total RO4929097 Tmax, given alone, 20 mg orally, median (interquartile range), n = 8",2.5 h
same,Tmax,"[3]; human, plasma, Unbound RO4929097 Tmax, given alone, 20 mg orally, median (interquartile range), n = 8",1.5 h
same,Interindividual variability of total RO4929097 AUC0-24h (max/min),[3]; single oral dose of 20 mg,16 fold and up to 16 fold
same,Interindividual variability of total RO4929097 Cmax (max/min),[3]; single oral dose of 20 mg,15 fold
same,Interindividual variability of unbound RO4929097 AUC0-24h (max/min),[3]; single oral dose of 20 mg,4 fold
same,Interindividual variability of unbound RO4929097 Cmax (max/min),[3]; single oral dose of 20 mg,3 fold
same,"Unbound RO4929097 AUC0-24h, range among patients",[3]; single oral dose of 20 mg,0.0281 to 0.113 µM·h
same,"Unbound RO4929097 Cmax, range among patients",[3]; single oral dose of 20 mg,1.9 to 6.1 nM
same,"Coefficient variation of AUC0-24h, total RO4929097",[3]; [8],99%
same,"Coefficient variation of AUC0-24h, unbound RO4929097",[3]; [8],49%
same,bound in human plasma,plasma proteins [4],> 97%
CS(=O)(=O)c1ccc(C(=O)Nc2ccc(Cl)c(-c3ccccn3)c2)c(Cl)c1 [GDC-0449],Kd,"AAG; read-out: Kd for AAG, in vitro equilibrium dialysis",1500 nM
same,average steady-state plasma concentration of total GDC-0449,[5],approximately 25 μmol/L
same,unbound drug levels as % of the total drug,[5],less than 1%

# — publication PMC3856649 (Clinical cancer research : an official journal of the …, 2012)
